From patent US11485776B2, “Antibodies against infectious diseases” (priority 2015, dated 2022)
Values after ≈ are worked out from the molar mass of the structure shown.

Experiments:
Type in all cases: cell-based
C. albicans = test: MIC test strips, clinical C. albicans
Method: (§1) C. albicans (SC 5314), C. kruesi (clinical isolate), C. tropicalis (BCRC 20520), C. parapsilosis (BCRC 20515) and C. glabrate (BCRC 20586) were kindly provided by Dr. Ching-Hua Su from Taipei Medical University, Taipei, Taiwan. […] Candida species were cultured in YPD medium and their identities were confirmed by CHROMagar Candida plate (CHROMagar, Paris, France).

C. tropicalis = test: MIC test strips, clinical C. tropicalis
Method: as §1

C. glabrate = test: MIC test strips, clinical C. glabrate
Method: as §1

C. parapsilosis = test: MIC test strips, clinical C. parapsilosis
Method: as §1

[1] = specimen CT11-52, C. tropicalis
[2] = specimen CT12-54, C. tropicalis
[3] = specimen CP6-20, C. parapsilosis
[4] = specimen CP7-17, C. parapsilosis
[5] = specimen CP8-48, C. parapsilosis

MIC (C. albicans; specimen CA6-17, C. albicans, read at 80% inhibition): 16 µg/mL (≈ 52.2 µM) | MIC (C. albicans; specimen CA7-3, C. albicans): 2 µg/mL (≈ 6.53 µM) | MIC (C. albicans; specimen CA7-26, C. albicans): 8 µg/mL (≈ 26.1 µM) | MIC (C. albicans; specimen CA7-30, C. albicans): 1 µg/mL (≈ 3.27 µM) | MIC (C. albicans; specimen CA10-50, C. albicans): 2 µg/mL (≈ 6.53 µM) | MIC (C. albicans; specimen CA10-65, C. albicans): 1 µg/mL (≈ 3.27 µM) | MIC (C. tropicalis; specimen CT6-29, C. tropicalis): 32 µg/ml | MIC (C. tropicalis; specimen CT6-50, C. tropicalis): 8 µg/mL (≈ 26.1 µM) | MIC (C. tropicalis; [1]): 32 µg/ml | MIC (C. tropicalis; [2]): 8 µg/mL (≈ 26.1 µM) | MIC (C. glabrate; specimen CG5-8, C. glabrate): 64 µg/mL (≈ 209 µM) | MIC (C. glabrate; specimen CG5-66, C. glabrate): 16 µg/mL (≈ 52.2 µM) | MIC (C. glabrate; specimen CG7-37, C. glabrate): 32 µg/ml | MIC (C. glabrate; specimen CG8-11, C. glabrate): 64 µg/mL (≈ 209 µM) | MIC (C. parapsilosis; [3]): 16 µg/mL (≈ 52.2 µM) | MIC (C. parapsilosis; [4]): 8 µg/mL (≈ 26.1 µM) | MIC (C. parapsilosis; [5]): 4 µg/mL (≈ 13.1 µM)
Structure (SMILES): OC(Cn1cncn1)(Cn1cncn1)c1ccc(F)cc1F [fluconazole]
Interpretation (C. albicans; specimen CA6-17, C. albicans): R | Interpretation (C. albicans; specimen CA7-3, C. albicans): S | Interpretation (C. albicans; specimen CA7-26, C. albicans): R | Interpretation (C. albicans; specimen CA7-30, C. albicans): S | Interpretation (C. albicans; specimen CA10-50, C. albicans): S | Interpretation (C. albicans; specimen CA10-65, C. albicans): S | Interpretation (C. tropicalis; specimen CT6-29, C. tropicalis): R | Interpretation (C. tropicalis; specimen CT6-50, C. tropicalis): R | Interpretation (C. tropicalis; [1]): R | Interpretation (C. tropicalis; [2]): R | Interpretation (C. glabrate; specimen CG5-8, C. glabrate): R | Interpretation (C. glabrate; specimen CG5-66, C. glabrate): S | Interpretation (C. glabrate; specimen CG7-37, C. glabrate): S | Interpretation (C. glabrate; specimen CG8-11, C. glabrate): R | Interpretation (C. parapsilosis; [3]): R | Interpretation (C. parapsilosis; [4]): S | Interpretation (C. parapsilosis; specimen CP8-20, C. parapsilosis): R | Interpretation (C. parapsilosis; [5]): S | Interpretation (C. parapsilosis; specimen CP12-37, C. parapsilosis): R
